Target: SMARCA2 (Homo sapiens, UniProt P51531)
Assay: HiBiT assay for protein degradation, Hela SMARCA2-HiBiT cells (A series)
Type: cell-based
Set-up: Hela cells were genetically modified via CRISPR/Cas9 to fuse HiBiT to the carboxy terminus of SMARCA2; host or cells: HeLa (CRISPR/Cas9 HiBiT knock-in)
Conditions: Hela SMARCA2-HiBiT cells, 24 hours treatment; for Dmax: read-out: SMARC A2 Hela HiBit Dmax (%); for DC50: read-out: SMARC A2 Hela HiBit DC50
Description: Hela cells were genetically modified via CRISPR/Cas9 to fuse HiBiT to the carboxy terminus of SMARCA2 (Promega CS302365) or SMARCA4 (Promega CS3023225). Cells were cultured in DMEM containing 10% FBS and 1% (Vol:Vol) penicillin-streptomycin. […] At the end of experiment, levels of SMARCA2 or SMARCA4 expression were assessed with Nano-Glo® HiBiT Lytic Detection Assay (Promega N3050). IC50 was obtained using the GraphPad Prism data analysis software.

Sequence of SMARCA2 (P51531 whole entry): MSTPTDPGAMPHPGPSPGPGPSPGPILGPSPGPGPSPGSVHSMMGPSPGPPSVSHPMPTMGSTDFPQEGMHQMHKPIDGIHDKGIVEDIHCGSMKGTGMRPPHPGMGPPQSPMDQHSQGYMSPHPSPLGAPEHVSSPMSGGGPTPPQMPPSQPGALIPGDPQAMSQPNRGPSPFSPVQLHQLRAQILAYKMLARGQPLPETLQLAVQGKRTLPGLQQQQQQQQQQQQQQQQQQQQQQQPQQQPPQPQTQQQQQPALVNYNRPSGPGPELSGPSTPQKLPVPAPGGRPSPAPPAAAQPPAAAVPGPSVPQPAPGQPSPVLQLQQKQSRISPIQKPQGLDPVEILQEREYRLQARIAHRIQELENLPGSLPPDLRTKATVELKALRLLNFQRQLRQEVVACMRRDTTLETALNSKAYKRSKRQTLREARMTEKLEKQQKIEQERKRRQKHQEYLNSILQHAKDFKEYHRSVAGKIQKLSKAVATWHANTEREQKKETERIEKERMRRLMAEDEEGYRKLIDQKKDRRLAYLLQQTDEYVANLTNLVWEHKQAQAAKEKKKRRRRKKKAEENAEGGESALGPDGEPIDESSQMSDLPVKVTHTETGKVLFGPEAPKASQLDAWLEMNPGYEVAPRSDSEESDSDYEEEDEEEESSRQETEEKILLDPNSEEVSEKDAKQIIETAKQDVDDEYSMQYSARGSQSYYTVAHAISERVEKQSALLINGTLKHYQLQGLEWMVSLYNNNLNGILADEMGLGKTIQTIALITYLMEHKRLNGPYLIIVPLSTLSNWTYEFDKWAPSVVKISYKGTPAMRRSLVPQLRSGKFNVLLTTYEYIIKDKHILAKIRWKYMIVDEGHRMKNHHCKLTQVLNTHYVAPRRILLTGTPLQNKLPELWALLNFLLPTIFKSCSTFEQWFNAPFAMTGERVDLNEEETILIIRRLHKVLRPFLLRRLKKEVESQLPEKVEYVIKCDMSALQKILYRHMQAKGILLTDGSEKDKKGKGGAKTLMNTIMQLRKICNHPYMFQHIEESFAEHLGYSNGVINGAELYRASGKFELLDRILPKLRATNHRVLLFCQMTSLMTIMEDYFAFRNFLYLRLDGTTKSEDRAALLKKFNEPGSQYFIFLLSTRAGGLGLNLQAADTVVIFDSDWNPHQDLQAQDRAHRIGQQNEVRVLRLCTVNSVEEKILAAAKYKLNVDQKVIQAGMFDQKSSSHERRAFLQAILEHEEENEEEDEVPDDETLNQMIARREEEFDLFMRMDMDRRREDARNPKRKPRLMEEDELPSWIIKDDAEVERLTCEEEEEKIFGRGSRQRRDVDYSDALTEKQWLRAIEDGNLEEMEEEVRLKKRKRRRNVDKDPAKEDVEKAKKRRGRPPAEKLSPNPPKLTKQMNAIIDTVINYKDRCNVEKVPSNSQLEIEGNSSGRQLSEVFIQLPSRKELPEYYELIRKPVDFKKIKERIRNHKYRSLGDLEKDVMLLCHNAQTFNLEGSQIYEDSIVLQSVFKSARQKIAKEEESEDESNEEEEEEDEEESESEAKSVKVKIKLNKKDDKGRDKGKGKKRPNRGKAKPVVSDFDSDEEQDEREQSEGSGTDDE

Row | SMILES | Dmax [%] | DC50 [nM]
1 | Cc1ncsc1-c1ccc([C@H](CCN2CCOCC2)NC(=O)[C@@H]2C[C@@H](O)CN2C(=O)[C@@H](n2cc([C@H]3CC[C@H](CN4CCC(c5ccc6c(c5)-n5c(nc(=O)c7c(Cl)cccc75)C65CCCCC5)CC4)CC3)nn2)C(C)(C)C)cc1 [Compound A81, (2S,4R)-1-((S)-2-(4-((1r,4S)-4-((4-(4′-chloro-5′-oxo-5′H-spiro[cyclohexane-1,7′-indolo[1,2-a]quinazolin]-10′-yl)piperidin-1-yl)methyl)cyclohexyl)-1H-1,2,3-triazol-1-yl)-3,3-dimethylbutanoyl)-4-hydroxy-N—((S)-1-(4-(4-methylthiazol-5-yl)phenyl)-3-morpholinopropyl)pyrrolidine-2-carboxamide] | > 90 | < 10
2 | Cc1ncsc1-c1ccc([C@H](CN2CCOCC2)NC(=O)[C@@H]2C[C@@H](O)CN2C(=O)[C@@H](n2cc(C3CCN(CC4CCN(c5ccc6c(c5)-n5c(nc(=O)c7c(Br)cccc75)C65CCCCC5)CC4)CC3)nn2)C(C)(C)C)cc1 [Compound A169, (2S,4R)-1-((S)-2-(4-(1-((1-(4′-bromo-5′-oxo-5′H-spiro[cyclohexane-1,7′-indolo[1,2-a]quinazolin]-10′-yl)piperidin-4-yl)methyl)piperidin-4-yl)-1H-1,2,3-triazol-1-yl)-3,3-dimethylbutanoyl)-4-hydroxy-N—((R)-1-(4-(4-methylthiazol-5-yl)phenyl)-2-morpholinoethyl)pyrrolidine-2-carboxamide] | – | > 1000
3 | Cc1ncsc1-c1ccc([C@H](CN2CCOCC2)NC(=O)[C@@H]2C[C@@H](O)CN2C(=O)[C@@H](n2cc([C@H]3CC[C@H](CN4CCC(c5ccc6c(n5)-n5c(nc(=O)c7c(Cl)cccc75)C65CCCCC5)CC4)CC3)nn2)C(C)(C)C)cc1 [Compound A77, (2S,4R)-1-((S)-2-(4-((1r,4S)-4-((4-(4′-chloro-5′-oxo-5′H-spiro[cyclohexane-1,7′-pyrido[3′,2′: 4,5]pyrrolo[1,2-a]quinazolin]-10′-yl)piperidin-1-yl)methyl)cyclohexyl)-1H-1,2,3-triazol-1-yl)-3,3-dimethylbutanoyl)-4-hydroxy-N—((R)-1-(4-(4-methylthiazol-5-yl)phenyl)-2-morpholinoethyl)pyrrolidine-2-carboxamide] | 70 to 90 | 10 to 100
4 | Cc1ncsc1-c1ccc([C@H](CN2CCOCC2)NC(=O)[C@@H]2C[C@@H](O)CN2C(=O)[C@@H](n2cc([C@H]3CC[C@H](CN4CCC(c5ccc6c(c5)-n5c(nc(=O)c7c(Br)cccc75)C65CCCCC5)CC4)CC3)nn2)C(C)(C)C)cc1 [Compound A69, (2S,4R)-1-((S)-2-(4-((1r,4S)-4-((4-(4′-bromo-5′-oxo-5′H-spiro[cyclohexane-1,7′-indolo[1,2-a]quinazolin]-10′-yl)piperidin-1-yl)methyl)cyclohexyl)-1H-1,2,3-triazol-1-yl)-3,3-dimethylbutanoyl)-4-hydroxy-N—((R)-1-(4-(4-methylthiazol-5-yl)phenyl)-2-morpholinoethyl)pyrrolidine-2-carboxamide] | > 90 | < 100
5 | Cc1ncsc1-c1ccc([C@H](CN2CCOCC2)NC(=O)[C@@H]2C[C@@H](O)CN2C(=O)[C@@H](n2cc(C3CCN(CC4CCN(c5ccc6c(c5)-n5c(nc(=O)c7c(Cl)cccc75)C65CCCCC5)CC4)CC3)nn2)C(C)(C)C)cc1 [Compound A168, (2S,4R)-1-((S)-2-(4-(1-((1-(4′-chloro-5′-oxo-5′H-spiro[cyclohexane-1,7′-indolo[1,2-a]quinazolin]-10′-yl)piperidin-4-yl)methyl)piperidin-4-yl)-1H-1,2,3-triazol-1-yl)-3,3-dimethylbutanoyl)-4-hydroxy-N—((R)-1-(4-(4-methylthiazol-5-yl)phenyl)-2-morpholinoethyl)pyrrolidine-2-carboxamide] | < 50 | > 1000
